PMC7525318, “Identification of Six Flavonoids as Novel Cellular Antioxidants and Their Structure-Activity Relationship” (Oxidative Medicine and Cellular Longevity, 2020)

How the values were obtained:
[1] = Oxygen radical antioxidant capacity (ORAC) assay; settings: Trolox equivalents; AAPH, fluorescein
Description: The ORAC assay was evaluated as previously described by Cao et al. with some modifications. 50 μL of samples or Trolox with different concentrations and the fluorescein solution was added to a 96-well microplate, which was incubated at 37°C for 10 min. […] The ORAC values were calculated by the regression equation between the Trolox concentration and the net area under the curve (expressed as μmol Trolox eq/μmol sample).

[2] = DPPH radical scavenging activity; settings: 0.1 mM DPPH in methanol, 37°C, 30 min
Description: This assay was conducted as previously described by Wen et al. with some modifications. DPPH was freshly prepared in methanol at a concentration of 0.1 mM. The solution (20 μL) containing the tested compounds with different concentrations was added into the DPPH solution (180 μL) in the 96-well plates. […] The IC50 value was calculated on the scavenging activity against DPPH radical.

HepG2 cells = test: Cellular antioxidant activity (CAA) assay; type: cell-based; settings: DCFH-DA 25 μM, ABAP 600 μM
Description: The CAA assay was tested as described previously. 6 × 10^4 cells/well of HepG2 cells were seeded at a 96-well microplate with 100 μL of growth medium/well. […] Then, the cells were washed with PBS and treated with 100 μL of 600 μM ABAP (dissolved in HBSS), and the 96-well microplate was immediately placed into an Infinite SpectraMax i3x Multi-Mode Detection plate-reader at 37°C. […]

O=c1c(O)c(-c2cc(O)c(O)c(O)c2)oc2cc(O)cc(O)c12 [compound 18, Myricetin]
ORAC values [1]: 6.64 ± 0.03 μmol TE/μmol | IC50 [2]: 21.3 ± 1.33 µM | EC50 (HepG2 cells; Homo sapiens): 26.7 ± 1.04 µM

C[C@@H]1O[C@@H](Oc2c(-c3ccc(O)c(O)c3)oc3cc(O)cc(O)c3c2=O)[C@H](O)[C@H](O)[C@H]1O [compound 28, Quercitrin]
IC50 [2]: 68.3 ± 1.37 µM | EC50 (HepG2 cells; Homo sapiens): > 200 µM

COc1ccc([C@@H]2CC(=O)c3c(O)cc(O[C@@H]4O[C@H](CO[C@@H]5O[C@@H](C)[C@H](O)[C@@H](O)[C@H]5O)[C@@H](O)[C@H](O)[C@H]4O)cc3O2)cc1O [compound 44, Hesperidin]
ORAC values [1]: 6.52 ± 0.15 μmol TE/μmol | IC50 [2]: > 200 µM | EC50 (HepG2 cells): > 200 µM

Oc1cc(O)c2cc(O)c(-c3ccc(O)c(O)c3)[o+]c2c1 [compound 51, Cyanidin chloride]
ORAC values [1]: 5.71 ± 0.03 μmol TE/μmol | IC50 [2]: 70.8 ± 2.31 µM | EC50 (HepG2 cells; Homo sapiens): 19.16 ± 0.16 µM

COc1ccc(-c2cc(=O)c3c(OC)c(OC)c(OC)c(OC)c3o2)cc1 [compound 19, Tangeretin]
IC50 [2]: > 200 µM | EC50 (HepG2 cells; Homo sapiens): > 200 µM

O=c1c(O)c(-c2ccc(O[C@@H]3O[C@H](CO)[C@@H](O)[C@H](O)[C@H]3O)c(O)c2)oc2cc(O)cc(O)c12 [compound 17, Spiraeoside]
IC50 [2]: > 200 µM | EC50 (HepG2 cells; Homo sapiens): > 200 µM

O=c1cc(-c2ccc(O)c(O)c2)oc2cc(O)cc(O)c12 [compound 23, Luteolin]
ORAC values [1]: 4.27 ± 0.02 μmol TE/μmol | IC50 [2]: 73.2 ± 0.75 µM | EC50 (HepG2 cells; Homo sapiens): 18.6 ± 0.61 µM

C[C@@H]1O[C@@H](OC[C@H]2O[C@@H](Oc3cc(O)c4c(c3)O[C@H](c3ccc(O)cc3)CC4=O)[C@H](O)[C@@H](O)[C@@H]2O)[C@H](O)[C@H](O)[C@H]1O [compound 42, Narirutin]
IC50 [2]: > 200 µM | EC50 (HepG2 cells; Homo sapiens): > 200 µM

Oc1cc(O)c2c(c1)O[C@H](c1ccc(O)c(O)c1)[C@H](O)C2 [compound 58, Epicatechin]
ORAC values [1]: 4.83 ± 0.13 μmol TE/μmol | IC50 [2]: 96.03 ± 0.13 µM | EC50 (HepG2 cells; Homo sapiens): > 200 µM

COc1cc(O)c2c(=O)cc(-c3ccc(O)cc3)oc2c1 [compound 37, Genkwanin]
IC50 [2]: > 200 µM | EC50 (HepG2 cells; Homo sapiens): > 200 µM

O=c1cc(-c2ccc(O)cc2)oc2cc(O)cc(O)c12 [compound 22, Apigenin]
ORAC values [1]: 4.27 ± 0.02 μmol TE/μmol | IC50 [2]: > 200 µM | EC50 (HepG2 cells; Homo sapiens): > 200 µM

O=C1c2c(O)cc(O)cc2O[C@H](c2cc(O)c(O)c(O)c2)[C@H]1O [compound 38, Dihydromyricetin]
ORAC values [1]: 5.25 ± 0.02 μmol TE/μmol | IC50 [2]: > 200 µM | EC50 (HepG2 cells; Homo sapiens): > 200 µM

COc1cc(-c2oc3cc(O)cc(O)c3c(=O)c2O)ccc1O [compound 1, Isorhamnetin]
IC50 [2]: 126 ± 4.26 µM | EC50 (HepG2 cells; Homo sapiens): 23.3 ± 1.38 µM

O=c1cc(-c2ccc(O)c(O)c2)oc2c([C@@H]3O[C@H](CO)[C@@H](O)[C@H](O)[C@H]3O)c(O)cc(O)c12 [compound 31, Orientin]
IC50 [2]: > 200 µM | EC50 (HepG2 cells; Homo sapiens): > 200 µM

O=c1c(O)c(-c2ccc(O)cc2)oc2cc(O)cc(O)c12 [compound 6, Kaempferol]
ORAC values [1]: 4.17 ± 0.06 μmol TE/μmol | IC50 [2]: > 200 µM | EC50 (HepG2 cells; Homo sapiens): 11 ± 0.25 µM

COc1ccc([C@@H]2CC(=O)c3c(O)cc(O[C@@H]4O[C@H](CO)[C@@H](O)[C@H](O)[C@H]4O[C@@H]4O[C@@H](C)[C@H](O)[C@@H](O)[C@H]4O)cc3O2)cc1O [compound 41, Neohesperidin]
IC50 [2]: > 200 µM | EC50 (HepG2 cells): > 200 µM

O=c1c(OC2OC(CO)C(O)C(O)C2O)c(-c2ccc(O)c(O)c2)oc2cc(O)cc(O)c12 (stereo not shown) [compound 26, Quercetin-3-O-galactoside]
ORAC values [1]: 4.05 ± 0.15 μmol TE/μmol | IC50 [2]: 53.3 µM | EC50 (HepG2 cells; Homo sapiens): 45.9 µM

O=c1cc(-c2ccc(O)cc2)oc2cc(O)c([C@@H]3O[C@H](CO)[C@@H](O)[C@H](O)[C@H]3O)c(O)c12 [compound 33, Isovitexin]
IC50 [2]: > 200 µM | EC50 (HepG2 cells; Homo sapiens): > 200 µM

O=C1c2c(O)cc(O)cc2O[C@H](c2ccc(O)cc2O)[C@H]1O [compound 40, Dihydromorin]
ORAC values [1]: 5.29 ± 0.05 μmol TE/μmol | IC50 [2]: > 200 µM | EC50 (HepG2 cells; Homo sapiens): > 200 µM

O=c1c(O[C@@H]2O[C@H](CO)[C@@H](O)[C@H](O)[C@H]2O)c(-c2ccc(O)c(O)c2)oc2cc(O)cc(O)c12 [compound 29, Isoquercitrin]
IC50 [2]: > 200 µM | EC50 (HepG2 cells; Homo sapiens): > 200 µM

OCC1OC(Oc2cc3c(OC4OC(CO)C(O)C(O)C4O)cc(O)cc3[o+]c2-c2ccc(O)cc2)C(O)C(O)C1O (stereo not shown) [compound 55, Pelargonin chloride]
IC50 [2]: > 200 µM | EC50 (HepG2 cells; Homo sapiens): > 200 µM

Myricitrin [compound 9]
IC50 [2]: 50.9 ± 2.14 µM | EC50 (HepG2 cells): > 200 µM

OC[C@H]1O[C@@H](Oc2cc3c(O)cc(O)cc3[o+]c2-c2ccc(O)c(O)c2)[C@H](O)[C@@H](O)[C@@H]1O.[Cl-] [compound 54, Cyanidin-3-O-glucoside chloride]
ORAC values [1]: 4.63 ± 0.14 μmol TE/μmol | IC50 [2]: > 200 µM | EC50 (HepG2 cells): 43.8 µM

O=C1c2c(O)cc(O)cc2OC(c2ccc(O)c(O)c2)C1O (stereo not shown) [compound 39, Taxifolin]
ORAC values [1]: 5.26 ± 0.04 μmol TE/μmol | IC50 [2]: 59.6 ± 3.12 µM | EC50 (HepG2 cells; Homo sapiens): > 200 µM

O=c1c(O)c(-c2ccc(OC3O[C@H](CO)[C@@H](O)[C@H](O)[C@H]3O)cc2)oc2cc(O)cc(O)c12 (stereo partly shown) [compound 12, Kaempferol-4′-O-glucopyranoside]
IC50 [2]: > 200 µM | EC50 (HepG2 cells; Homo sapiens): > 200 µM

O=c1c(O)c(-c2ccccc2)oc2cc(O)cc(O)c12 [compound 34, Galangin]
IC50 [2]: > 200 µM | EC50 (HepG2 cells; Homo sapiens): 31.2 ± 0.86 µM

COc1ccc([C@@H]2CC(=O)c3c(O)cc(O)cc3O2)cc1O [compound 43, Hesperetin]
IC50 [2]: > 200 µM | EC50 (HepG2 cells; Homo sapiens): > 200 µM

O=C1C[C@@H](c2ccc(O)cc2)Oc2cc(O)ccc21 [compound 46, Liquiritigenin]
IC50 [2]: > 200 µM | EC50 (HepG2 cells; Homo sapiens): > 200 µM

O=c1c(OC2OC(CO)C(O)C(O)C2O)c(-c2cc(O)c(O)c(O)c2)oc2cc(O)cc(O)c12 (stereo not shown) [compound 25, Myricetin-3-O-galactoside]
IC50 [2]: 82.4 ± 2.88 µM | EC50 (HepG2 cells; Homo sapiens): > 200 µM

O=c1cc(-c2ccccc2)oc2cc(O)cc(O)c12 [compound 20, Chrysin]
IC50 [2]: > 200 µM | EC50 (HepG2 cells; Homo sapiens): > 200 µM

O=c1c(O[C@@H]2O[C@H](CO)[C@H](O)[C@H](O)[C@H]2O)c(-c2ccc(O)cc2)oc2cc(O)cc(O)c12 [compound 11, Trifolin]
ORAC values [1]: 2.06 ± 0.01 μmol TE/μmol | IC50 [2]: 45.1 ± 2.12 µM | EC50 (HepG2 cells; Homo sapiens): > 200 µM

O=C(CCc1ccc(O)cc1)c1c(O)cc(O)cc1O[C@@H]1O[C@H](CO)[C@@H](O)[C@H](O)[C@H]1O [compound 49, Phlorizin]
ORAC values [1]: 6.43 ± 0.14 μmol TE/μmol | IC50 [2]: > 200 µM | EC50 (HepG2 cells; Homo sapiens): > 200 µM

O=C1C[C@@H](c2ccc(O)cc2)Oc2cc(O)cc(O)c21 [compound 45, Naringenin]
ORAC values [1]: 4.62 ± 0.13 μmol TE/μmol | IC50 [2]: > 200 µM | EC50 (HepG2 cells; Homo sapiens): > 200 µM

C[C@@H]1O[C@@H](OC[C@H]2O[C@@H](Oc3c(-c4ccc(O)c(O)c4)oc4cc(O)cc(O)c4c3=O)[C@H](O)[C@@H](O)[C@@H]2O)[C@H](O)[C@H](O)[C@H]1O [compound 16, Rutin]
IC50 [2]: 70 ± 1.44 µM | EC50 (HepG2 cells; Homo sapiens): > 200 µM

O=c1c(O)c(-c2ccc(O)c(O)c2)oc2cc(O)ccc12 [compound 35, Fisetin]
ORAC values [1]: 5.36 ± 0.21 μmol TE/μmol | IC50 [2]: 25.2 ± 0.62 µM | EC50 (HepG2 cells; Homo sapiens): > 200 µM

O=c1c(O)c(-c2ccc(O)c(O)c2)oc2cc(O)cc(O)c12 [compound 7, Quercetin, reference compound]
ORAC values [1]: 5.52 ± 0.04 μmol TE/μmol | IC50 [2]: 21.5 ± 1.9 µM | EC50 (HepG2 cells; Homo sapiens): 8.77 ± 0.09 µM

Oc1cc(O)c2c(c1)OC(c1ccc(O)c(O)c1)C(O)C2 (stereo not shown) [compound 59, Catechin]
ORAC values [1]: 4.93 ± 0.02 μmol TE/μmol | IC50 [2]: 130 ± 5.55 µM | EC50 (HepG2 cells; Homo sapiens): > 200 µM

COc1cc(-c2[o+]c3cc(O)cc(O)c3cc2O[C@@H]2O[C@H](CO)[C@@H](O)[C@H](O)[C@H]2O)cc(OC)c1O.[Cl-] [compound 56, Oenin chloride]
ORAC values [1]: 4.78 ± 0.15 μmol TE/μmol | IC50 [2]: > 200 µM | EC50 (HepG2 cells): > 200 µM

COc1ccc(CCC(=O)c2c(O)cc(O[C@@H]3O[C@H](CO)[C@@H](O)[C@H](O)[C@H]3O[C@@H]3O[C@@H](C)[C@H](O)[C@@H](O)[C@H]3O)cc2O)cc1O [compound 47, Neohesperidin dihydrochalcone]
ORAC values [1]: 4.31 ± 0.01 μmol TE/μmol | IC50 [2]: > 200 µM | EC50 (HepG2 cells; Homo sapiens): > 200 µM

O=C(CCc1ccc(O)cc1)c1c(O)cc(O)cc1O [compound 48, Phloretin]
IC50 [2]: > 200 µM | EC50 (HepG2 cells; Homo sapiens): 30.96 ± 0.2 µM

O=c1cc(-c2ccccc2)oc2cc(O)c(O)c(O)c12 [compound 21, Baicalein]
IC50 [2]: > 200 µM | EC50 (HepG2 cells; Homo sapiens): 42.5 ± 0.24 µM

Quercetin-3-O-rhamnoside [compound 27]
IC50 [2]: 47.7 µM | EC50 (HepG2 cells): 22.8 µM

O=C(/C=C/c1ccc(O)cc1)c1ccc(O)cc1O [compound 50, Isoliquiritigenin]
EC50 (HepG2 cells; Homo sapiens): > 200 µM

COc1ccc(-c2oc3cc(O)cc(O)c3c(=O)c2O)cc1 [compound 3, Kaempferide]
IC50 [2]: > 200 µM | EC50 (HepG2 cells; Homo sapiens): > 30 µM

OCC1OC(Oc2cc3c(OC4OC(CO)C(O)C(O)C4O)cc(O)cc3[o+]c2-c2ccc(O)c(O)c2)C(O)C(O)C1O (stereo not shown) [compound 53, Cyanin chloride]
IC50 [2]: > 200 µM | EC50 (HepG2 cells; Homo sapiens): > 200 µM
